The source of these data is patent US20220054463A1, “METHODS OF TREATING ANEURYSMS” (University of Pittsburgh-of the Commonwealth System of …, priority 2020, published 2022).

Test [1] has as its system murine intracranial aneurysms. As to the kind of experiment: Mouse intracranial aneurysm model (aneurysm formation). It counts as in vivo, mouse (C57BL/6). The text has this: Mouse Intracranial Aneurysm Model. Murine intracranial aneurysms were created in female 8-12 week-old C57BL/6 mice (Charles River Laboratories, Wilmington, Mass.) using a method described previously (Hosaka et al., Journal of neurointerventional surgery. 2014; 6:474-9). Briefly, the left common carotid artery and the right renal artery were ligated to induce hypertension. One week later, an Alzet micro-osmotic pump model 1004 (DURECT Corp, Cupertino, Calif.) was implanted subdermally to deliver Angiotensin II (Bachem AG, Switzerland) at 1000 ng/kg/min. 10 μL of 0.8% porcine elastase (Worthington Biochemical Corp, Lakewood, N.J.) in normal saline was injected into the right basal cistern using stereotactic coordinates: 1.2 mm rostral of bregma, 0.7 mm lateral of midline and 5.3 mm ventral of the dorsal aspect of the skull. The animals were fed a hypertensive diet with 8% NaCl and 0.12% BAPN (TEKLAD). Clopidogrel was administered at 1 mg/kg in normal saline via intraperitoneal injection every two days. Reparixin was administered at 10 mg/kg in normal saline via intraperitoneal injection every two days. PBS-treated animals received 10 μL injection of phosphate buffered saline subcutaneously every two days. […] Each Circle of Willis was examined by a blinded observer and aneurysm formation was recorded (yes/no). […]

The test system of test [2] is cytokines (inflammatory profile). As to the kind of experiment: Cytokine arrays in aneurysm-induced cerebral vasculature. It counts as in vivo, mouse. Particulars: aneurysmal mice, 2 versus 3 weeks; FIG. 5. The text has this: Mouse Intracranial Aneurysm Model. Murine intracranial aneurysms were created in female 8-12 week-old C57BL/6 mice (Charles River Laboratories, Wilmington, Mass.) using a method described previously (Hosaka et al., Journal of neurointerventional surgery. 2014; 6:474-9). Briefly, the left common carotid artery and the right renal artery were ligated to induce hypertension. One week later, an Alzet micro-osmotic pump model 1004 (DURECT Corp, Cupertino, Calif.) was implanted subdermally to deliver Angiotensin II (Bachem AG, Switzerland) at 1000 ng/kg/min. 10 μL of 0.8% porcine elastase (Worthington Biochemical Corp, Lakewood, N.J.) in normal saline was injected into the right basal cistern using stereotactic coordinates: 1.2 mm rostral of bregma, 0.7 mm lateral of midline and 5.3 mm ventral of the dorsal aspect of the skull. The animals were fed a hypertensive diet with 8% NaCl and 0.12% BAPN (TEKLAD). Clopidogrel was administered at 1 mg/kg in normal saline via intraperitoneal injection every two days. Reparixin was administered at 10 mg/kg in normal saline via intraperitoneal injection every two days. PBS-treated animals received 10 μL injection of phosphate buffered saline subcutaneously every two days. […] In addition, cytokines were analyzed in human cerebral aneurysm, superficial temporal artery, and peripheral intravenous blood specimens that were collected at the time of surgery.

In turn, `COC(=O)[C@H](c1ccccc1Cl)N1CCc2sccc2C1` [clopidogrel] had a mice developing aneurysms in test [1] (1 mg/kg clopidogrel, controls 59%, p<0.001, FIG. 3A) of 0%. Besides, the “attenuation of inflammatory profile (temporal dynamics of 96 cytokines)” value in test [2] is recorded as “moderate response”.
As for `CC(C)Cc1ccc([C@@H](C)C(=O)NS(C)(=O)=O)cc1` [reparixin], in test [1] (10 mg/kg reparixin, PBS:DMSO treated control mice 59%, p=0.0163, FIG. 3B), the mice developing aneurysms stood at 14%. Besides, the “attenuation of inflammatory profile (temporal dynamics of 96 cytokines)” value in test [2] was “robust anti-inflammatory effects”.
